Legend:
[1] = tested on: skin cancer cell line, A431; test: Inhibitory effect on growth of cancer cell line A431, SRB; type: cell-based; details: overexpressed EGFR1 (HER-1)
Summary of the method: (§1)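 Cells were cultured in DMEM with 10% FBS. Compounds were applied at 10 μM with 10-fold serial dilution to 10^−4, DMSO <1%, for 72 h at 37 °C. Cells were then TCA-fixed and stained with 0.4% SRB, and absorbance was read at 570 nm after solubilisation in 10 mM Tris base.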

[2] = tested on: Human Umbilical Vein Endothelial Cell (HUVEC); test: Inhibitory effect on growth of human umbilical vein endothelial cell (HUVEC), MTS; type: cell-based; details: 10 ng/ml VEGF, absorbance 490 nm
[3] = tested on: colon and rectal cancer cell line, SW-620; test: Inhibitory effect on growth of cancer cell line SW-620, SRB; type: cell-based; details: not having overexpressed EGFR and EGFR2
Summary of the method: as §1

[4] = tested on: breast cancer cell line, SK-Br3; test: Inhibitory effect on growth of cancer cell line SK-Br3, SRB; type: cell-based; details: overexpressed EGFR2 (HER-2)
Summary of the method: as §1

VEGFR2 (KDR) = VEGFR2 (KDR) (Homo sapiens (Human), UniProt P35968); test: VEGFR2 (KDR) enzyme assay, fluorescence polarization; type: biochemical; details: 5 μM ATP, poly(Glu, Tyr) substrate
VEGFR2 (KDR), sequence (P35968 20-1356): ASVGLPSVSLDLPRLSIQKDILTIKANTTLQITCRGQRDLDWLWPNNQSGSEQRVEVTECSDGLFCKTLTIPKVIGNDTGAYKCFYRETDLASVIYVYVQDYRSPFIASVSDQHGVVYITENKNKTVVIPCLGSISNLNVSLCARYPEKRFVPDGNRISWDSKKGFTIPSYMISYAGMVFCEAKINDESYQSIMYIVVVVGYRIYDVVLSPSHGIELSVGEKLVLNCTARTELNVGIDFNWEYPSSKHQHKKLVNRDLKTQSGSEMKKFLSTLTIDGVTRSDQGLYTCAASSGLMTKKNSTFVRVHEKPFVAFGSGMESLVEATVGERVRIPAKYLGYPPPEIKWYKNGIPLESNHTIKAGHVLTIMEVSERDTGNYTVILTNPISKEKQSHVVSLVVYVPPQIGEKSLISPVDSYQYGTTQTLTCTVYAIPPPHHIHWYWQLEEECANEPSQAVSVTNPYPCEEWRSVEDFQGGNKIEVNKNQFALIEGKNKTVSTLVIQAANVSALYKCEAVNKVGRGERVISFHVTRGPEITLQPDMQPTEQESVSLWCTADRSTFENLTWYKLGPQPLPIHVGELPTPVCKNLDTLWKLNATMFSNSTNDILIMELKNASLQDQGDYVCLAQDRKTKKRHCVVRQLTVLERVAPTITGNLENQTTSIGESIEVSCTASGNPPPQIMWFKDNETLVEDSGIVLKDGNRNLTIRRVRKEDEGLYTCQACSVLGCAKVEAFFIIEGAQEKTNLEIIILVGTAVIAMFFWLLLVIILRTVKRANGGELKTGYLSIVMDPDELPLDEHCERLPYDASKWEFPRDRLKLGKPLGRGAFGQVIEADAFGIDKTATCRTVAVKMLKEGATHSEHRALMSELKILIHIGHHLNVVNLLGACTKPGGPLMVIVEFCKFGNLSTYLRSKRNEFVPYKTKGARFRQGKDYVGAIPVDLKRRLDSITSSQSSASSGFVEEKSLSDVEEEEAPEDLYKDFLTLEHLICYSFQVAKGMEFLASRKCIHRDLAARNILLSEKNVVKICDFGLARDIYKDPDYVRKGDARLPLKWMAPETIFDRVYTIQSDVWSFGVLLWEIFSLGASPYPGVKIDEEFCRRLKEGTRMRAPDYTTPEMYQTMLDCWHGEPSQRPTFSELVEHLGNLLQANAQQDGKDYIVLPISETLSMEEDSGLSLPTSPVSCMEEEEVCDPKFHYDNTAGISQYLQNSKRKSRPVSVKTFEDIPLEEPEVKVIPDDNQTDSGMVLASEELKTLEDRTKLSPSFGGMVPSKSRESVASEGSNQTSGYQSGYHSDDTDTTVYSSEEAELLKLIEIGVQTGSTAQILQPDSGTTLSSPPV
Summary of the method: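 Autophosphorylation read by fluorescence polarization: VEGFR2 (Proquinase) at 200 ng/10 μl with 5 μM ATP and 10 ng/ml poly(Glu,Tyr) 4:1, in 20 mM HEPES pH 7.4, 5 mM MgCl2, 2 mM MnCl2, 50 μM Na3VO4. Reaction 1 h at room temperature, EDTA stop, then anti-phosphotyrosine antibody/tracer for 30 min in the dark.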

EGFR1 (HER-1) = EGFR1 (HER-1) (Homo sapiens (Human), UniProt P00533); test: EGFR1 (HER-1) enzyme assay, fluorescence polarization; type: biochemical; details: 100 μM ATP, poly(Glu, Tyr) substrate
EGFR1 (HER-1), sequence (P00533 25-1210): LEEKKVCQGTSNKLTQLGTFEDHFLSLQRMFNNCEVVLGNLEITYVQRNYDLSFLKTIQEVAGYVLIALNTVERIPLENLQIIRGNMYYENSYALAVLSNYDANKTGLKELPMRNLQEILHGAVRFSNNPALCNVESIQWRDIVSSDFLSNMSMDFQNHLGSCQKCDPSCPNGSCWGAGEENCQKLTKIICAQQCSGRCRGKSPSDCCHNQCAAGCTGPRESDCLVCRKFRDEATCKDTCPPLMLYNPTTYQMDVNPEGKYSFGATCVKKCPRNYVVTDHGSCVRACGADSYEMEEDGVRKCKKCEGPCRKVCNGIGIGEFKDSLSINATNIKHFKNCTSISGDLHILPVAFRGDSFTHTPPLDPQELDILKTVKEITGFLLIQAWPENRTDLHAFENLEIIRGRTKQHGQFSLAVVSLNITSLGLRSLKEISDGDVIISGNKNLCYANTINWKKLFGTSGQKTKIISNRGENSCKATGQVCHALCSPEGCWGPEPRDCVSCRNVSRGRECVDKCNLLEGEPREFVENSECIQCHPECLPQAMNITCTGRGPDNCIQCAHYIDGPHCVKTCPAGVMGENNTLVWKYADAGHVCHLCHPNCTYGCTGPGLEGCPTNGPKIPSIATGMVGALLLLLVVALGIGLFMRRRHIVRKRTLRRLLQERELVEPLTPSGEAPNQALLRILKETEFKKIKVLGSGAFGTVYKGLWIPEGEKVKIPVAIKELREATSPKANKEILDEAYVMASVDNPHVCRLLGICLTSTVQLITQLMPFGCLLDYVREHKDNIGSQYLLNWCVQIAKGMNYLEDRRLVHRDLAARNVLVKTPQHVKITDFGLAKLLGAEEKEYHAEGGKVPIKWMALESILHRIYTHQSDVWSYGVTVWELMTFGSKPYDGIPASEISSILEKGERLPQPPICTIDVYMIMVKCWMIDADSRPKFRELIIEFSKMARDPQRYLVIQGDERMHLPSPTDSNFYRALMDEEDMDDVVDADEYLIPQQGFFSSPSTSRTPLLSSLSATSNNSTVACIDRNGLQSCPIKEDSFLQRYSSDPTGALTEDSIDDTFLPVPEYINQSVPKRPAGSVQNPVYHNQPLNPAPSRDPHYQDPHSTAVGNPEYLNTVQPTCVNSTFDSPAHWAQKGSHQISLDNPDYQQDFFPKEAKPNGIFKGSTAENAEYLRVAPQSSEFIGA

Row | Compound | IC50 ([1]; Homo sapiens, A-431, 72 h) [nM] | IC50 ([3]; Homo sapiens, 72 h) [nM] | IC50 ([4]; Homo sapiens, SK-BR-3, 72 h) [nM] | IC50 (VEGFR2 (KDR)) [nM] | IC50 (EGFR1 (HER-1)) [nM] | IC50 ([2]; Homo sapiens, 96 h) [nM] | IC50 ([1]; 72 hours) [nM] | IC50 ([2]; 96 hours) [nM] | IC50 ([3]; 72 hours) [nM] | IC50 ([4]; 72 hours) [nM]
1 | C=CC(=O)Nc1cc2c(Nc3cc(Cl)c(Cl)cc3F)ncnc2cc1OCCN(C)C [Example 136, N-[4-(4,5-dichloro-2-fluoro-phenylamino)-7-(2-dimethylamino-ethoxy)-quinazolin-6-yl]-acrylamide] | 343 | 2940 | 181 | 856 | 321 | 923 | – | – | – | –
2 | C=CC(=O)Nc1cc2c(Nc3cc(Cl)c(Cl)cc3F)ncnc2cc1OCCNC(=O)COC [Example 138, N-{4-(4,5-dichloro-2-fluoro-phenylamino)-7-[2-(2-methoxy-acetylamino)-ethoxy]-quinazolin-6-yl}-acrylamide] | 21 | 721 | 39 | 823 | 20 | 845 | – | – | – | –
3 | C=CC(=O)Nc1cc2c(Nc3cc(Cl)c(Cl)cc3F)ncnc2cc1OCCNC(=O)CS(C)(=O)=O [Example 139, N-{4-(4,5-dichloro-2-fluoro-phenylamino)-7-[2-(2-methanesulfonyl-acetylamino)-ethoxy]-quinazolin-6-yl}-acrylamide] | 48 | 2830 | 109 | 657 | 40 | 682 | – | – | – | –
4 | C=CC(=O)Nc1cc2c(Nc3ccc(Br)c(Cl)c3F)ncnc2cc1OCCNC(=O)CCO [Example 145, N-{4-(4-bromo-3-chloro-2-fluoro-phenylamino)-7-[2-(3-hydroxy-propionylamino)-ethoxy]-quinazolin-6-yl}-acrylamide] | 45 | 2630 | 58 | 88 | 41 | 116 | – | – | – | –
5 | C=CC(=O)Nc1cc2c(Nc3ccc(Br)c(Cl)c3F)ncnc2cc1OCCNC(=O)COC [Example 146, N-{4-(4-bromo-3-chloro-2-fluoro-phenylamino)-7-[2-(2-methoxy-acetylamino)-ethoxy]-quinazolin-6-yl}-acrylamide] | 203 | 2790 | 97 | 257 | 213 | 365 | – | – | – | –
6 | C=CC(=O)Nc1cc2c(Nc3ccc(Br)c(Cl)c3F)ncnc2cc1OCCNC(=O)CCN1CCCCC1 [Example 147, N-{4-(4-bromo-3-chloro-2-fluoro-phenylamino)-7-[2-(3-piperidin-1-yl-propionylamino)-ethoxy]-quinazolin-6-yl}-acrylamide] | 40 | 9530 | 125 | 79 | 12 | 167 | – | – | – | –
7 | C=CC(=O)Nc1cc2c(Nc3ccc(Br)c(Cl)c3F)ncnc2cc1OCCNC(=O)CO [Example 149, N-{4-(4-bromo-3-chloro-2-fluoro-phenylamino)-7-[2-(2-hydroxy-acetylamino)-ethoxy]-quinazolin-6-yl}-acrylamide] | 15 | 9560 | 41 | 147 | 16 | 204 | – | – | – | –
8 | C=CC(=O)Nc1cc2c(Nc3ccc(Br)c(Cl)c3F)ncnc2cc1OCCNC(=O)CCOC [Example 150, N-{4-(4-bromo-3-chloro-2-fluoro-phenylamino)-7-[2-(3-methoxy-propionylamino)-ethoxy]-quinazolin-6-yl}-acrylamide] | 22 | 9530 | 242 | 278 | 21 | 358 | – | – | – | –
9 | C=CC(=O)Nc1cc2c(Nc3ccc(Br)c(Cl)c3F)ncnc2cc1OCCNC(=O)CN(CC)CC [Example 151, N-{4-(4-bromo-3-chloro-2-fluoro-phenylamino)-7-[2-(2-diethylamino-acetylamino)-ethoxy]-quinazolin-6-yl}-acrylamide] | 68 | 9520 | 153 | 309 | 58 | 351 | – | – | – | –
10 | C=CC(=O)Nc1cc2c(Nc3ccc(Br)cc3F)ncnc2cc1OCC(C)NC(=O)CN(C)C (stereo not drawn) [Example 153] | – | – | – | 433 | 172 | – | 160 | 521 | 9570 | 207
11 | C=CC(=O)Nc1cc2c(Nc3ccc(Br)cc3F)ncnc2cc1OCC(C)NC(=O)CCN(CC)CC (stereo not drawn) [Example 155, N-{4-(4-bromo-2-fluoro-phenylamino)-7-[2-(3-diethylamino-propionylamino)-propoxy]-quinazolin-6-yl}-acrylamide] | 35 | 9550 | 110 | 249 | 24 | 314 | – | – | – | –
12 | C=CC(=O)Nc1cc2c(Nc3ccc(Br)c(Cl)c3F)ncnc2cc1OCC(C)NC(=O)CN(C)C (stereo not drawn) [Example 157] | – | – | – | 687 | 88 | – | 95 | 752 | 8360 | 165
13 | C=CC(=O)Nc1cc2c(Nc3ccc(Br)c(Cl)c3F)ncnc2cc1OC[C@@H](C)NC(=O)CN(C)C [Example 159] | – | – | – | 419 | 286 | – | 254 | 423 | 6650 | 162
14 | C=CC(=O)Nc1cc2c(Nc3ccc(Br)cc3F)ncnc2cc1OCC(CC)NC(=O)CN(C)C (stereo not drawn) [Example 160, N-{4-(4-bromo-2-fluoro-phenylamino)-7-[2-(2-dimethylamino-acetylamino)-butoxy]-quinazolin-6-yl}-acrylamide] | 55 | 6550 | 96 | 984 | 23 | 867 | – | – | – | –
15 | C=CC(=O)Nc1cc2c(Nc3ccc(Br)cc3F)ncnc2cc1OCCNC(=O)C(COC)N(C)C (stereo not drawn) [Example 161, N-{4-(4-bromo-2-fluoro-phenylamino)-7-[2-(2-dimethylamino-3-methoxy-propionylamino)-ethoxy]-quinazolin-6-yl}-acrylamide] | 95 | 10000 | 118 | 1120 | 57 | 1230 | – | – | – | –

Now from value to compound, other results behind:

Row | IC50 ([1]; Homo sapiens, A-431, 72 h) [nM] | IC50 ([3]; Homo sapiens, 72 h) [nM] | IC50 ([4]; Homo sapiens, SK-BR-3, 72 h) [nM] | IC50 (VEGFR2 (KDR)) [nM] | IC50 (EGFR1 (HER-1)) [nM] | Compound | IC50 ([2]; Homo sapiens, 96 h) [nM] | IC50 ([1]; 72 hours) [nM] | IC50 ([2]; 96 hours) [nM] | IC50 ([3]; 72 hours) [nM] | IC50 ([4]; 72 hours) [nM]
16 | 11 | 2430 | 42 | 784 | 9 | C=CC(=O)Nc1cc2c(Nc3cc(Cl)c(Br)cc3F)ncnc2cc1OCCNC(=O)CN(C)C [Example 135, N-{4-(4-bromo-5-chloro-2-fluoro-phenylamino)-7-[2-(2-dimethylamino-acetylamino)-ethoxy]-quinazolin-6-yl}-acrylamide] | 1310 | – | – | – | –
17 | 5 | 9580 | 40 | 954 | 4 | C=CC(=O)Nc1cc2c(Nc3cc(Cl)c(Cl)cc3F)ncnc2cc1OCCNC(=O)CC [Example 137, N-[4-(4,5-dichloro-2-fluoro-phenylamino)-7-(2-propionylamino-ethoxy)-quinazolin-6-yl]-acrylamide] | 951 | – | – | – | –
18 | 8 | 9540 | 57 | 751 | 9 | C=CC(=O)Nc1cc2c(Nc3cc(Cl)c(Cl)cc3F)ncnc2cc1OCCNC(=O)CN(C)C [Example 140, N-{4-(4,5-dichloro-2-fluoro-phenylamino)-7-[2-(2-dimethylamino-acetylamino)-ethoxy]-quinazolin-6-yl}-acrylamide] | 756 | – | – | – | –
19 | 12 | 10000 | 37 | 56 | 13 | C=CC(=O)Nc1cc2c(Nc3ccc(Br)c(Cl)c3F)ncnc2cc1OCCNC(C)=O [Example 141, N-[7-(2-acetylamino-ethoxy)-4-(4-bromo-3-chloro-2-fluoro-phenylamino)-quinazolin-6-yl]-acrylamide] | 66 | – | – | – | –
20 | 15 | 10000 | 45 | 106 | 14 | C=CC(=O)Nc1cc2c(Nc3ccc(Br)c(Cl)c3F)ncnc2cc1OCCNC(=O)CC [Example 142, N-[4-(4-bromo-3-chloro-2-fluoro-phenylamino)-7-(2-propionylamino-ethoxy)-quinazolin-6-yl]-acrylamide] | 132 | – | – | – | –
21 | 11 | 2810 | 7 | 87 | 19 | C=CC(=O)Nc1cc2c(Nc3ccc(Br)c(Cl)c3F)ncnc2cc1OCCNC(=O)CN(C)C [Example 143, N-{4-(4-bromo-3-chloro-2-fluoro-phenylamino)-7-[2-(2-dimethylamino-acetylamino)-ethoxy]-quinazolin-6-yl}-acrylamide] | 239 | – | – | – | –
22 | 6 | 721 | 12 | 54 | 7 | C=CC(=O)Nc1cc2c(Nc3ccc(Br)c(Cl)c3F)ncnc2cc1OCCNC(=O)CCN(CC)CC [Example 144, N-{4-(4-bromo-3-chloro-2-fluoro-phenylamino)-7-[2-(3-diethylamino-propionylamino)-ethoxy]-quinazolin-6-yl}-acrylamide] | 154 | – | – | – | –
